Assays:
[1] = DPPH radical scavenging effect; format: biochemical; conditions: 60 μM DPPH, room temperature 30 minutes, absorbance 520 nm
Procedure: 100 μl of a DPPH solution (60 μM ethanol solution) was charged in a 96-well microplate and 100 μl of an ethanol solution as a test sample or 100 μl of ethanol as a control was added, and the whole was gently mixed and left to stand at room temperature for 30 minutes. Then, absorbance at 520 nm was measured and a DPPH radical scavenging ability was calculated according to the following formula. 50% effective concentration (EC50) was calculated from the DPPH radical scavenging ability and concentrations of gradually diluted test samples. DPPH radical scavenging ability(%)=[(1−(absorbance of test sample))/(absorbance of control)]×100
50% effective concentration (EC50) was calculated from DPPH radial scavenging abilities in gradual concentrations of each sample.

[2] = Superoxide dismutase (SOD)-like activity (SOD Test Wako kit); format: biochemical
Procedure: With respect to Substances 1 to 4 and Comparative Substances 1 and 2 which were the same as those used in Test Example 1, SOD-like activity was measured using a blood SOD activity measuring kit (SOD Test Wako: manufactured by Wako Pure Chemical Industries, Ltd.). SOD-like activity was calculated according to the following formula and 50% effective concentration (EC50) was calculated based on the relationship with the concentration of test sample. SOD-like activity(%)=[(1−(absorbance of test sample))/(absorbance of control)]×100
EC50 was calculated from SOD-like activities in gradual concentrations of each sample.

Substance: catechin [Comparative Substance 2]
- EC50 in DPPH radical scavenging [1]: 1.71 µg/mL
- EC50 in SOD-like activity [2]: 62.0 µg/mL
